Reference: patent publication US5098613A, “Anti-inflammatory agents” (Eli Lilly and Company, priority 1990, dated 1992)
Where two headings read alike, the source gives them in different places.

Biological target: T1, leukotriene B4 specific receptor on the membrane of human neutrophils (Homo sapiens, UniProt Q15722)
T1 construct: incubating neutrophils (1×10^7 cells) with 0.1-0.2 nM ^3 H-LTB4; endogenous in cells; host or cells: human peripheral blood neutrophils (buffy coats of two blood donors)
Assay: Inhibition of Binding of ^3 H-LTB4 to Peripheral Human Neutrophils
Settings: for inhibition at 1 µM: drug concentration 10^-6 M; for inhibition at 10 µM: read-out: LTB4 Binding Inhibition; for inhibition at 0.1 µM: drug concentration 10^-7 M
Protocol: The effectiveness of compounds to inhibit the binding of leukotriene B4 to a specific receptor on the membrane of human neutrophils was measured by using an adaptation of a radio-ligand binding assay developed by Goldman and Goetzl, J. Immunol., 129, 1600 (1982). Other investigators have developed similar assays (see, e.g., Kreisle, et al., J. Exp. Med., 157, 628 (1983) and Lin, et al., Prostaglandins, 28, 837 (1984)).
Cells used in the assay were isolated by standard techniques of centrifugation on Ficol-Hypaque, dextran 70 sedimentation and hypotonic lysis. The following procedure was used. Freshly-prepared buffy coat layers from two individuals were obtained from a local blood donor center. The cells were mixed and diluted to 484 ml. with phosphate buffered saline containing heparin (10 units/ml) and heat-inactivated calf serum (5%). This was divided into 20 ml. aliquots and the aliquots layered on top of Ficoll-Paque (12 ml.). The material was then centrifuged at 500 g. for 40 minutes at room temperature. The resulting upper layer of platelets and mononuclear cells was discarded. The lower layer containing erythrocytes and neutrophils was retained. Buffer was added (1 ml. per 4 ml. of lower layer) and the suspension mixed. For each milliliter of this mixture, 0.33 ml. of 6% Macrodex was added. After stirring, the cels were allowed to sediment for 1 hour at 37° C. The resulting erythrocyte pellet was discarded and the neutrophil enriched supernatant fluid centrifuged at 500 g. for 10 minutes at 4° C. Erythrocytes still present in this cell pellet were lysed by incubating the cells with 5-8 ml. ice-cold distilled water for 30-45 seconds. Subsequently, the volume was made up to 50 ml. by addition of ice-cold buffer and the cells resuspended. The suspension was then centrifuged at 300 g. for 10 minutes at 4° C. The cells were finally resuspended at a cell density of 2×10^7 cells/ml in the assay buffer. This buffer Consisted of Hanks' balanced salt solution and 0.1% ovalbumin (pH 7.3).
The radio-ligand binding assay was conducted by incubating neutrophils (1×10^7 cells) with 0.1-0.2 nM ^3 H-LTB4 (sp. act. 150-220 Curies/mmol) and test compound (1×10^-5 M and 1×10^-6 M) for 10 minutes at 4° C. The amount of bound ^3 H-LTB4 was then measured and compared with the amount bound in the absence of test compound. The assay was carried out in microcentrifuge tubes by adding first 10 μl test compound dissolved in DMSO, followed by adding 20 μl ^3 H-LTB4 diluted in assay buffer, and finally adding 500 μl of the cell suspension pension. At the end of the 10 minutes incubation, 300 μl of a mixture of dibutyl and dinonyl phthalate (7:2) were added and the tubes centrifuged for 2 minutes in a microcentrifuge. The radioactivity bound to the cell pellet was measured by scintillation spectroscopy. Appropriate corrections for nonspecific bonding of ^3 H-LTB4 were made.

[1] = drug concentration 10^-5 M, 4° C., 10 minutes

T1 sequence (Q15722 whole entry): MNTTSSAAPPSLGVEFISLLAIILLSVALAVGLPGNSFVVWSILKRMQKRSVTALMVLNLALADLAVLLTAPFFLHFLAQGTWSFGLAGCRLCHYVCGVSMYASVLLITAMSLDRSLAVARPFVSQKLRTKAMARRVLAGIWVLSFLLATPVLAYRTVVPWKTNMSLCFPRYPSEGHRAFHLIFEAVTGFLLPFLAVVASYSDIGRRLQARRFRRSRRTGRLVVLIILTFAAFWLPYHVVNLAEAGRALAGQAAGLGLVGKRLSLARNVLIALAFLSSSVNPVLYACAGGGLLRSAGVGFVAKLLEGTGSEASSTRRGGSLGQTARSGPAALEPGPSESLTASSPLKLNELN

SMILES	inhibition at 1 µM (4° C., 10 minutes)	inhibition at 10 µM	inhibition at 10 µM [1]	inhibition at 0.1 µM (4° C., 10 minutes)
CCc1cc(C(C)=O)c(O)cc1OCCCCCCC(=O)NC [Example 99, 7-(-Acetyl-2-ethyl-5-hydroxyphenoxy)N-methylheptanamide]	54%	97%	–	–
CCc1cc(C(C)=O)c(O)cc1OCCCCCC(C)(C)C(N)=O [Example 101, 7-(4-Acetyl-2-ethyl-5-hydroxyphenoxy)-2,2-methylheptanamide]	82%	–	101%	45%
C=CCc1cc(C(C)=O)c(O)cc1OCCCCCC(C)=O [Example 102]	57%	–	97%	–
C=CCc1cc(C(C)=O)c(O)cc1OCCCCCC(C)(C)O [Example 103, 2-Hydroxy-4-(6-hydroxy-6-methylheptyloxy)-5-allylacetophenone]	59%	–	97%	–
C=CCc1cc(C(=O)c2ccccc2)c(O)cc1OCCCCC#N [Example 104, 5-(4-Benzoyl-5-hydroxy-2-allylphenoxy)pentanenitrile]	5%	–	32%	–
C=CCc1cc(C(=O)CC)c(O)cc1OCCCCC#N [Example 105, 5-[5-Hydroxy-4-(1-oxopropyl)-2-allylphenoxy]pentanenitrile]	35%	–	76%	–
C=CCc1cc(C(=O)CCCC(=O)O)c(O)cc1OCCCCC#N [Example 106, 5-[4-(4-Cyanobutoxy)-2-hydroxy-5-allylphenyl)-5-oxopentanoic acid]	1%	–	9%	–
CCCc1cc(C(C)=O)c(O)cc1OCCCCC#N [Example 118, 5-(4-Acetyl-5-hydroxy-2-propylphenoxy)-pentanenitrile]	38%	–	83%	–
C=CCc1cc(C(C)=O)c(O)cc1OCCCCc1nnnn1C [Example 119, 2-Hydroxy-4-[4-(1-methyl-lH-tetrazol-5-yl)-butoxy]-5-allylacetophenone]	13%	–	57%	–
C=CCc1cc(C(C)=O)c(O)cc1OCCCCc1nnn(C)n1 [Example 120, 2-Hydroxy-4-[4-(2-methyl-2H-tetrazol5-yl)butoxy]-5-allylacetophenone]	55%	–	97%	–
CSCc1cc(C(C)=O)c(O)cc1OCCCCCCC#N [Example 128, 7-[4-Acetyl-5-hydroxy-2-(methylthiomethyl)-phenoxy]heptanenitrile]	64%	–	97%	–
COCc1cc(C(C)=O)c(O)cc1OCCCCCCC#N [Example 129, 7-[4-Acetyl-5-hydroxy-2-(methoxymethyl)phenoxy]-hdptanentrile]	7%	–	47%	–
CCc1cc(C(C)=O)c(O)cc1OCCCC(C)(C)C#N [Example 133, 5-(4-Acetyl-2ethyl-5-hydroxyphenoxy)-2,2-dimethylpentanitrile]	48%	–	89%	–
CCc1cc(C(C)=O)c(O)cc1OCCCC(C)(C)C(=O)O [Example 134, 5-(4-Acetyl-2ethyl-5-hydroxyphenoxy)-2,2-dimethylpentanoic acid]	45%	–	93%	–
CCc1cc(C(C)=O)c(O)cc1OCCCC(C)(C)C(N)=O [Example 135, 5-(4-Acetyl-2-ethyl-5-hydroxyphenoxy)-2,2-dimethylpentamide]	55%	–	95%	–
CCc1cc(C(C)=O)c(O)cc1OCCCCCN [Example 137, 1-{4-[(5-Aminopentyl)oxy]-5-ethyl-2-hydroxyphenyl}ethanone]	22%	–	43%	–
CCc1cc(C(C)=O)c(O)cc1OCCCCCNC(C)=O [Example 138, N-[5-(4-Acetyl-2-ethyl-5-hydroxyphenoxy)-pentyl]acetamide]	58%	–	98%	–
C=CCc1cc(C(C)=O)c(O)cc1OCCCCC#N [Example 139, 5-(4-Acetyl-5-hydroxy-2-allylphenoxy)pentanenitrile]	53%	92%	–	–
CCOC(=O)Cn1nnc(CCCCOc2cc(O)c(C(C)=O)cc2CC)n1 [Example 141, 5-[4-(4-Acetyl-2-ethyl-5-hydroxyphenoxy)-butyl]-2H-tetrazole-2-acetic acid, ethyl ester]	57%	–	90%	–
CCOC(=O)Cn1nnnc1CCCCOc1cc(O)c(C(C)=O)cc1CC [Example 142, 5-[4-(4-acetyl-2-ethyl-5-hydroxyphenoxy)butyl]-1H-tetrazole-1-acetic acid, ethyl ester]	5%	–	34%	–
CCc1cc(C(C)=O)c(O)cc1OCCCCc1nnn(CC(=O)O)n1 [Example 143, 5-[4-(4-Acetyl-2ethyl-5-hydroxyphenoxy)-butyl]-2H-tetrazole-2-acetic acid]	27%	–	69%	–
CCc1cc(C(C)=O)c(O)cc1OCCCCc1nnnn1CC(=O)O [Example 144, 5-[4-(4-Acetyl-2-ethyl-5-hydroxyphenoxy)-butyl]-1H-tetrazole-1-acetic acid]	20%	–	63%	–
CCc1cc(C(C)=O)c(O)cc1OCCCCCCC(=O)Nc1nnn[nH]1 [Example 145, 7-(4-Acetyl-2-ethyl-5-hydroxyphenoxy)-N-1H-tetrazol-5-ylheptanamide]	85%	–	101%	–
CCc1cc(C(C)=O)c(O)cc1OCCCCCn1cncn1 [Example 146]	29%	–	81%	–
CCOC(=O)c1ccc(COc2cc(O)c(C(C)=O)cc2CC)cc1O [Example 147, 4-[(4-Acetyl-2-ethyl-5-hydroxyphenoxy)methyl]-2-hydroxybenzoic acid, ethyl ester]	3%	–	2%	–
CCc1cc(C(C)=O)c(O)cc1OCc1ccc(C(=O)O)c(O)c1 [Example 148, 4-[(4-Acetyl-2-ethyl-5-hydroxyphenoxy)methyl]-2-hydroxybenzoic acid]	14%	–	44%	–
CCc1cc(C(C)=O)c(O)cc1OCCCCCC(C)(C)C(=O)N(C)O [Example 149, 7-(4-Acetyl-2-ethyl-5-hydroxyphenoxy)-N-hydorxy-N,2,2-trimethylheptanamide]	65%	–	97%	6%
CCc1cc(C(C)=O)c(O)cc1OCCCCCCCC(C)(C)C(=O)N(C)O [Example 150, N-Methyl-N-hydroxy-9-(4-acetyl-2-ethyl-5-hydroxyphenoxy)-2,2-dimethylnonanamide]	59%	–	90%	–
CCc1cc(CC)c(OCCCCCC(C)(C)c2nnn[nH]2)cc1O [Example 151, 2,4-Diethyl-5-{[6-methyl-6-(1H-tetrazol-5-yl)heptyl]oxy}phenol]	103%	–	105%	78%
CCc1cc(C(C)=NO)c(O)cc1OCCCCCC(C)(C)C(=O)O [Example 152, 7-{4-[-(Hydroxyimino)ethyl]-2-ethyl-5-hydroxyphenoxy}-2,2-dimethylheptanoicacid]	41%	–	–	3%
